Results as given in patent US7589173B2, “Methods for diagnosing cancer and decreasing metastasis by cancer cells” (The Scripps Research Institute, priority 2003, dated 2009).

Test system: SIMA135 tyrosine phosphorylation
Settings: PP2 50 μM, 30 minutes at 37° C, serum free DMEM
Method: Cell lysates, serum free conditioned media and immunoprecipitated proteins were separated by electrophoresis through 8% SDS-polyacrylamide gels then transferred to nitrocellulose membranes (Millipore). […] Following extensive washing membranes were incubated for 2 hr at room temperature with goat anti-mouse IgG (0.16 μg/ml, Pierce, Rockford, Il) and immunoreactive bands detected by enhanced chemiluminescence (Pierce).
For analysis of the basal level of tyrosine phosphorylation of SIMA135, subconfluent cultures of HEp3 and HeLa (as negative control) cells were incubated at 37° C. for 30 min with serum free DMEM containing 50 mM NaF and 1 mM Na3VO4 then washed with ice cold PBS. For inhibition of Src kinase family phosphorylation, HEp3 cells were cultured in serum free DMEM without NaF and Na3VO4 for 30 minutes at 37° C. with PP2 (50 μM). Cells were then lysed in ice cold buffer containing 50 mM Tris (pH 7.4), 150 mM NaCl, 1% Triton X-100, 1 mM phenylmethylsulfonyl fluoride, 1 mM benzamidine, 25 μg/ml aprotinin, 25 μg/ml leupeptin, 50 mM NaF and 1 mM Na3VO4. Insoluble material was removed by centrifugation at 14000 rpm for 10 min. […] Cells lysates were collected as described above.

SMILES: CC(C)(C)n1nc(-c2ccc(Cl)cc2)c2c(N)ncnc21 [PP2]
- reduction in the level of SIMA135 tyrosine phosphorylation compared to untreated HEp3 cells: ~75%
